According to patent US7998940B2, “Aptamers to von Willebrand factor and their use as thrombotic disease therapeutics” (Archemix Corp., priority 2004, dated 2011):
“And” between values parts separate entries of the source, which are not always exact repeats. Identical values can stand only once. [invdT] = inverted (3'-3') thymidine; d = 2'-deoxy (DNA); m = 2'-O-methyl

How the values were obtained:
[1] = not given; remark: listed apart in the source
[2] = tested on: vWF dependent platelet plug formation, human whole blood; test: PFA-100 assay, human whole blood; assay type: cell-based; conditions: for ~IC95 PFA-100 (nM) with citrated human whole blood: minimum concentration that extends closing time to 300 seconds
Description: (§1) Another assay of this Example, using the PFA-100 instrument, is an agonist independent but vWF dependent assay that uses the PFA-100 instrument (Harrison et al., Clin. Lab. Haem., v24, p 225-32 (2002)). The PFA-100 simulates the formation of a hemostatic plug under conditions of high shear force in vivo by recording the time required for a platelets to aggregate and block the flow of citrated whole blood through a microscopic aperture in a membrane coated with collagen and either epinephrine or ADP. This activity is von Willebrand factor dependent as high MW vWF multimers bind to immobilized collagen on the membrane and then bind to and activate platelets because of the shear force induced by drawing the blood through the microscopic aperture.
Fresh whole blood was collected from healthy non-steroidal anti-inflammatory drug (NSAID) free cynomolgus macaques. Aptamers were diluted with physiological saline from Aldon (Cat#9420306) in no-additive vacutainer tubes (Cat#366434, Becton Dickenson). Samples were loaded onto collagen/epinephrine test cartridges (Cat#B4170-20A, Dade Behring) which were used in the PFA-100 machine (Dade Behring). Trigger solution (Cat#B4170-50, Dade Behring) was used in the self-test and to pre-wet the test cartridges. O-ring cleaning pads (Cat#B4170-73, Dade Behring) were used in the self-test and in the O-ring cleaning process.
A self-test, which included an O-ring cleaning process, was always run on the PFA-100 machine before running any samples to ensure proper function of the machine.
During the entire experiment, the tubes of whole blood were gently inverted every five minutes to prevent settling.
In order to assay the titration of aptamer in whole blood, the aptamer was added to no-additive vacutainer tubes and diluted to the desired concentrations (ex: 0 nM, 1 nM to 1000 nM) using physiological saline such that the final volume was […]. When the PFA-100 was ready to run the next set of samples, 1940 μl of whole blood was added to the tube containing a concentration of aptamer. This tube was gently inverted three times to thoroughly mix the aptamer and blood. Samples were always run in duplicate on the PFA-100 machine. 800 μl of this blood mixture was loaded into the collagen/epinephrine test cartridges. The test cartridges were loaded onto the PFA-100 machine. The time of occlusion of the aperture was measured by the PFA-100, with a maximal time of 300 seconds. We estimate the IC95 in this assay to be the minimum concentration of aptamer that extends the closing time to 300 seconds.

[3] = pharmacokinetics after 3 mg/kg IV in cynomolgus macaques (Oligreen, HPLC); assay type: in vivo
Description: ARC1368 (SEQ ID NO 291), 1779 (SEQ ID NO 320) and 1780 (SEQ ID NO 321) (as described in Example 2 above) were injected intravenously into cynomolgus macaques (n=3/group) at a dosage of 3 mg/kg which was expected to yield an instantaneous plasma concentration of 3 uM, approximately 30-fold higher than the putative effective dose. Subsequently, citrated blood samples were collected at regular intervals and processed for plasma.
Subsequently, plasma aptamer concentrations were determined using the Oligreen assay (Gray et al., Antisense and Nucleic Acid Drug Development 7 (3):133-140 (1997). The data were subsequently analyzed using the program WinNonlin to yield the pharmacokinetic parameters listed in Tables 29 to 31 below.
Following the Oligreen assay analysis, plasma aptamer concentrations were determined for the animals dosed with ARC1779 (SEQ ID NO 320) using a validated HPLC-based assay. The HPLC data were analyzed via noncompartmental and 2-compartment analysis using the program WinNonlin.

[4] = pharmacokinetics of ARC1779 after 0.5 mg/kg IV bolus in cynomolgus macaques (HPLC); assay type: in vivo; conditions: 0.5 mg/kg single IV bolus, 2-compartment analysis
Description: -PK/PD correlation of ARC1779 was evaluated in three cynomolgus macaques after a single intravenous (IV) bolus dose at 0.5 mg/kg. ARC1779 levels in the plasma were correlated to PD effects of ARC1779 in inhibition of platelet function or prolongation of cutaneous bleeding time (CBT).
Following IV administration, blood was collected percutaneously at various time points post-dose for PK and PD analysis. PD effect of ARC1779 on platelet function was determined by PFA-100 assays and effect of ARC1779 on bleeding was measured by CBT time. In addition, plasma samples were analyzed by HPLC for quantitation of ARC1779 levels. PK parameter estimates were determined by 2-compartment analysis.

[5] = tested on: vWF dependent platelet plug formation, cynomolgus whole blood; test: PFA-100 assay, cynomolgus macaque whole blood; assay type: cell-based, cynomolgus macaques; conditions: minimum concentration that extends closing time to 300 seconds
Description: as §1
Fresh whole blood was collected from healthy non-steroidal anti-inflammatory drug (NSAID) free cynomolgus macaques. […]
In order to assay the titration of aptamer in whole blood, the aptamer was added to no-additive vacutainer tubes and diluted to the desired concentrations (ex: 0 nM, 1 nM to 1000 nM) using physiological saline such that the final volume was […]. When the PFA-100 was ready to run the next set of samples, 1940 μl of whole blood was added to the tube containing a concentration of aptamer. […] The time of occlusion of the aperture was measured by the PFA-100, with a maximal time of 300 seconds. […]

[6] = tested on: ADP induced platelet aggregation; test: ADP Induced Platelet Aggregation (AIPA) in human PRP; assay type: cell-based; conditions: in words, 10 micromolar ADP
Description: Another assay of this Example used ADP to induce platelet aggregation.
AIPA was performed with human PRP exactly as was done for BIPA described above in Example 3C with the exception that instead of adding botrocetin, 10 micromolar ADP (Chronolog, Haverton, Pa.) was added to induce platelet aggregation.

vWF = vWF (Homo sapiens, UniProt P04275, D1472H/Q852R/T1381A); test: cellular / biological vWF dependent assays of Example 3, not specified further; assay type: cell-based; conditions: in words; FACS, BIPA (and PFA-100) assays of Example 3
Description: The effectiveness of various aptamers in blocking vWF function in several biological assays is described in this Example.
In one assay botrocetin is used. Botrocetin, a protein isolated from snake venom, is known to induce von Willebrand Factor binding to the gpib receptor on live and fixed platelets. This reaction causes agglutination of suspensions of fixed platelets via vWF multimerization. In preparations of platelet rich plasma (hereinafter “PRP”), vWF/botrocetin induction of agglutination is followed by a second phase of platelet aggregation caused by metabolic activation of the platelets. These two reactions: vWF binding to fixed platelets and vWF mediated platelet aggregation, can be used to measure the activity of aptamers of the invention.

[7] = tested on: rabbit vWF A1 domain (SEQ ID NO 6); test: dot blot KD determination, rabbit vWF A1 domain; assay type: binding; conditions: dot blot, 12 point protein titration, 1xDPBS plus 0.1 mg/mL BSA, room temperature, 30 minutes
Description: A 12 point protein titration was used in the dot blot assay (300 nM, 100 nM, 30 nM, 10 nM, 3 nM, 1 nM, 300 pM, 100 pM, 30 pM, 10 pM, 3 pM, 0 pM) in 1×DPBS plus 0.1 mg/mL BSA at room temperature for 30 minutes.

[8] = 3 mg/kg IV, monkeys, Oligreen assay, noncompartmental, individual animals 2101, 2103, 2104
[9] = 3 mg/kg IV, monkeys, Oligreen assay, noncompartmental, mean of 3 animals
[10] = cynomolgus monkey, in vivo, iv, 3 mg/kg

rabbit vWF A1 domain (SEQ ID NO 6), sequence (as listed by the source): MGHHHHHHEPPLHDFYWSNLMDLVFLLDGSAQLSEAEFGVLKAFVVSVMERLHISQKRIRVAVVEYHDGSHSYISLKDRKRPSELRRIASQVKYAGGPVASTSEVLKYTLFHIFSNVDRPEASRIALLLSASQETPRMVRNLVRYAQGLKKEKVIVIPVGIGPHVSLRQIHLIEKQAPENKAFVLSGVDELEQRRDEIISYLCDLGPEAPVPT
vWF, sequence (P04275 764-2813 Q852R/T1381A/D1472H): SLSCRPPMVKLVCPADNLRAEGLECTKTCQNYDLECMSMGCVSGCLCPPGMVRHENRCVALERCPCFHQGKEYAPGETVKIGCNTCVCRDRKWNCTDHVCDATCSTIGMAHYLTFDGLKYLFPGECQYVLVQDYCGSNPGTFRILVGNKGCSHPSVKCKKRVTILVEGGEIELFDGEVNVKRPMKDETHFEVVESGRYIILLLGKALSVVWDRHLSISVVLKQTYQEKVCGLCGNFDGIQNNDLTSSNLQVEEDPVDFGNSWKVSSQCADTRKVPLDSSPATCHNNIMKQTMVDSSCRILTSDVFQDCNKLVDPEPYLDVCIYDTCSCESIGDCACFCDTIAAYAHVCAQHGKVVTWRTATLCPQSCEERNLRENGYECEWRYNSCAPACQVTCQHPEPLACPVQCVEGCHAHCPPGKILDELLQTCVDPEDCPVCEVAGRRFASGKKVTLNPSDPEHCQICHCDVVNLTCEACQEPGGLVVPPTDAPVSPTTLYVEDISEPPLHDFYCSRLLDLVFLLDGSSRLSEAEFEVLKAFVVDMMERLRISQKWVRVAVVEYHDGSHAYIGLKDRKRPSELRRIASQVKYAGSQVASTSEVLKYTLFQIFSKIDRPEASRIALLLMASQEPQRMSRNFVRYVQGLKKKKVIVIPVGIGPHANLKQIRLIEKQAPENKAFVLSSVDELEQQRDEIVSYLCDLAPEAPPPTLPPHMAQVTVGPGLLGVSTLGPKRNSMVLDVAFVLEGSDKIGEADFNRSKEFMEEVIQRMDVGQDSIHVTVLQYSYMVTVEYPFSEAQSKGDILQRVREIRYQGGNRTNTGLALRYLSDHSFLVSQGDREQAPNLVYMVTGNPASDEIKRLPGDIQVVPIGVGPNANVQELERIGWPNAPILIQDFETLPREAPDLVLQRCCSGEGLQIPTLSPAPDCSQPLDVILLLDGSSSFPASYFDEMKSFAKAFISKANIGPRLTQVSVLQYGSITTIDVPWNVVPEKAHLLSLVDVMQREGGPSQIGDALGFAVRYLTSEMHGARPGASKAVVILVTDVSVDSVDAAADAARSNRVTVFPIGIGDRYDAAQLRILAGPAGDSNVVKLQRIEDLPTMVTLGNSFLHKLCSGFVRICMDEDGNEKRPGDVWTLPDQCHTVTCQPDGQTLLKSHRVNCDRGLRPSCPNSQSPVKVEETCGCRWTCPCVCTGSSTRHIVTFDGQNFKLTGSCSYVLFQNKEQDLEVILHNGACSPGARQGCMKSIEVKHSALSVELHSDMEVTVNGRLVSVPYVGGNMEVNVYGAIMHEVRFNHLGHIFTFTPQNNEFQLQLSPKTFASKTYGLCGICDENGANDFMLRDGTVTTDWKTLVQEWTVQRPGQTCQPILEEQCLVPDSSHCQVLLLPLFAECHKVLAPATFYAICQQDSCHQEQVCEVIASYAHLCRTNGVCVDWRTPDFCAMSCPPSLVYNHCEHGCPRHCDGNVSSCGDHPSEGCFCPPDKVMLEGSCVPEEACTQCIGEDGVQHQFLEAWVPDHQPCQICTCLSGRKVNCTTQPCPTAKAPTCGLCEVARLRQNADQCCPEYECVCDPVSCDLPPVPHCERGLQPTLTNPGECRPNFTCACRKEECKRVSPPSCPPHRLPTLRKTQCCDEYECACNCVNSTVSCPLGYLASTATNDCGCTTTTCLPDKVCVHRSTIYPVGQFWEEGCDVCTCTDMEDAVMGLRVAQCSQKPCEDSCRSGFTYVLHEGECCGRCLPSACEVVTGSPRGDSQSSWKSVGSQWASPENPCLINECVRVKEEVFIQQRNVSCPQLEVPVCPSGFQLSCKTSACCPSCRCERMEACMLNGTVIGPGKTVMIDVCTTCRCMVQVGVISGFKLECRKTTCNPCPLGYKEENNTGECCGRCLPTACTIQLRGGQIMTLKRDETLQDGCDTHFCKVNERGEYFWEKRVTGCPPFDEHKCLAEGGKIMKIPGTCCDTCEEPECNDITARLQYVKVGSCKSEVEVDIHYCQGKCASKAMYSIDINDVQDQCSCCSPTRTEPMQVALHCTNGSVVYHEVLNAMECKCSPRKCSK

dGdGdCdGTdGdCdAdGTdGdCdCTTdCdGdGdCdCdGTdGdCdGdGTdGdCdCTdCdCdGTdCdAdCdGdCdC-3T (DNA GGCGTGCAGTGCCTTCGGCCGTGCGGTGCCTCCGTCACGCC; DNA, [invdT] at 3' end, backbone and methylation of C not given here) [ARC1172, ARC1115 with 3'-inverted dT]
T½ Human plasma: 17 h
T½ Rat plasma [1]: 3 h
~IC95 PFA-100 (nM) with citrated human whole blood [2]: ~100 nM

PEG20K-NH2-mGmCmGmUdGdCdAmGmUmGmCmCmUmUmCmGmGmCdCmG-s-TmGdCdGdGTmGmCdCmUdCdCmGmUdCmAmCmGmC-3T [ARC1779]
distribution half-life (t1/2α) ([3]; 3 mg/kg IV, HPLC-based assay): 1.4 h
elimination half-life (t1/2β) ([3]; 3 mg/kg IV, HPLC-based assay): 12.9
distribution phase α-half-life ([3]; 3 mg/kg IV, Oligreen assay): ~2 h
AUClast [3, 8]: 309.245 µg·h/mL and 336.59 µg·h/mL and 235.503 µg·h/mL
Cmax [3, 8]: 69.065 µg/mL and 65.717 µg/mL and 70.344 µg/mL
MRTlast [3, 8]: 5.27 h and 4.66 h and 2.69 h
Tmax [3, 8]: 0.25 hr (2×) and 0.50 hr
AUClast, Mean [3, 9]: 293.779 µg·h/mL
Cmax, Mean [3, 9]: 68.375 µg/mL
MRTlast, Mean [3, 9]: 4.21 h
Tmax, Mean [3, 9]: 0.33 h
concentration-time profile ([3]; in words, 3 mg/kg IV, HPLC method): biphasic
pharmacokinetic profile ([3]; in words, 3 mg/kg IV, mean concentration-time profile, OliGreen assay): mainly monophasic
distribution half-life (t1/2α) [4]: approximately 1.0 hour
~IC95 PFA-100 (nM) with citrated human whole blood [2]: ~100 nM

mGmCmGmUdGdCdAmGmUmGmCmCmUmUmCmGmGmCdCmG-s-TmGdCdGdGTmGmCdCmUdCdCmGmUdCmAmCmGmC-3T (GCGUGCAGUGCCUUCGGCCGTGCGGTGCCUCCGUCACGC; sugars from the 5' end mmmmdddmmmmmmmmmmmdmdmddddmmdmddmmdmmmm, [invdT] at 3' end, backbone not given here) [ARC1368]
AUC0-last, Mean [3, 10]: 25224 ng·h/mL
MRTlast, Mean [3, 10]: 4.48 h
distribution phase [3, 10]: rapid distribution phase
pharmacokinetic profile [3, 10]: mainly monophasic
~IC95 PFA-100 (nM) with citrated C. macaque whole blood [5]: ~100 nM
T½ Human plasma: 63 h
T½ Rat plasma [1]: 21 h
ability to block AIPA [6]: no ability to block AIPA
~IC95 PFA-100 (nM) with citrated human whole blood [2]: ~100 nM
potency in PFA-100 assay ([2]; in words, human whole blood): potency comparable to ReoPrO™

B1: AMX237.G6: DNA SELEX 2 aptamer clone (nucleic acid)
DNA: CTACCTACGATCTGACTAGCGTGCAGTGCCTATTCCAGGCCGTGCGGTGCCTCCGTCACGCTTACTCTCATGTAGTTCC
modifications: DNA, backbone and methylation of C not given here
notes: DNA SELEX 2 aptamer clone
activity in the cellular / biological assays (vWF): slightly more potent
Kd [7]: 47 nM
